One assay addresses T1, hDAGL-β (Homo sapiens, UniProt Q8NCG7).
T1 sequence (Q8NCG7 1-672): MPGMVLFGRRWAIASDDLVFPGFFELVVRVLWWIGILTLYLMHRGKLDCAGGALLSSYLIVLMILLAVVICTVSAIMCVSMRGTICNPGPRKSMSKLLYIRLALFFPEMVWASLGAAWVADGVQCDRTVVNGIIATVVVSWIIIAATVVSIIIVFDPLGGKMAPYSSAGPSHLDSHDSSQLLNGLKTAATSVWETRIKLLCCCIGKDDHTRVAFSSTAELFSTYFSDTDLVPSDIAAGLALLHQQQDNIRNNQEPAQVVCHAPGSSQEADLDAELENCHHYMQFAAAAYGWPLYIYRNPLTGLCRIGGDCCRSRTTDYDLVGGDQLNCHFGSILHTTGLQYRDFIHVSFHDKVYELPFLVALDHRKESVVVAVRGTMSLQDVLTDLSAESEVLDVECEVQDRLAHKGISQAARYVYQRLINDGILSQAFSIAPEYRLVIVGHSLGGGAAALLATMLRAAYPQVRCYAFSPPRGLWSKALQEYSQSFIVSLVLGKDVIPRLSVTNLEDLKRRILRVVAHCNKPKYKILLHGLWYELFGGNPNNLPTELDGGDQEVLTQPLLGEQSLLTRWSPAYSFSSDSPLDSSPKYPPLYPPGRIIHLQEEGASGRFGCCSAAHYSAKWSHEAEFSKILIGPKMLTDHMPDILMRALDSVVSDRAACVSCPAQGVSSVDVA
Put plainly: Biochemical assay with para-nitrophenylbutyrate as surrogate substrate on human DAGL-β. To be noted: n=4.

Another assay concerns the target T2, DAGL-β (Mus musculus, UniProt Q91WC9).
T2 construct: from tissue; host or cells: mouse spleen membrane proteome
T2 sequence (Q91WC9 1-669): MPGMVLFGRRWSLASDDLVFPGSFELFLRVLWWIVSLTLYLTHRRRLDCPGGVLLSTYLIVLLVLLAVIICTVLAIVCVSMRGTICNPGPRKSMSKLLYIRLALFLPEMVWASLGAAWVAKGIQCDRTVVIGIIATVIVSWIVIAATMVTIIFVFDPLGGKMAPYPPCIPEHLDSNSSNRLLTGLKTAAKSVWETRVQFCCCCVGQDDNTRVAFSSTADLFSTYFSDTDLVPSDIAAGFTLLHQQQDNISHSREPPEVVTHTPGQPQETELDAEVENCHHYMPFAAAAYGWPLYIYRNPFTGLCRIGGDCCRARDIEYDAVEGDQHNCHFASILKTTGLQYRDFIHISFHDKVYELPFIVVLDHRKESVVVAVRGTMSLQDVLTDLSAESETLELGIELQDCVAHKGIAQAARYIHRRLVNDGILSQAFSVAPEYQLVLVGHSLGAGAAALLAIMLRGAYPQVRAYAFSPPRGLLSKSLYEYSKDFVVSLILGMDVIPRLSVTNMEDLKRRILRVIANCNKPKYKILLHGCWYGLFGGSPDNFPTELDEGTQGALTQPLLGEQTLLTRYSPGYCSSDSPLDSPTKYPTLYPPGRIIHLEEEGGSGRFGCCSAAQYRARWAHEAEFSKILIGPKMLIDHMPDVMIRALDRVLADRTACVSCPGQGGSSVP
The assay is described as follows: Competitive ABPP with MB064 in mouse spleen membrane proteome. Type of assay: biochemical. To be noted: 10 µM compound, MB064 1.0 µM.

The test system of a further assay is Neuro2A cells. Put plainly: Targeted lipidomics in Neuro2A cells. Type of assay: cell-based, mouse. Conditions: in situ treatment 1h, 37 °C; n=4. How it is done: To test the cellular activity of inventive compound 25, the inventor used Neuro2A cells, which is a mouse neuroblastoma cell line known to express both DAGL-α and DAGL-β. In a targeted lipidomics experiment the effect of inventive compound 25 on the cellular levels of 2-AG and anandamide was determined.
Neuro2A cells were cultured as described above. Before inhibitor treatment, the culture medium was removed and the cells were washed with warm (37 °C) serum free medium (3x). The cells were treated with vehicle (DMSO) or inhibitor for 1h at 37 °C in serum free medium. […]
Endocannabinoids were measured using a chip-based nano liquid chromatography (LC) system coupled to a triple quadrupole mass spectrometer. […]
A 6440 Triple quadrupole equipped with a nonoESI source operating in positive mode (Agilent technologies, Walborn, Germany) was used for MS detection. […] Quantification was obtained using static MRM (multiple reaction monitoring) mode of the transistions at m/z 379.3 → 287.2 for 2AG, 348.3 → 62.2 for AEA and 387.3 → 294.2 for 2AGd8, 356.3 → 62.2 for AEAd8 (internal standards). […] Raw MS data were processes using mass hunter quantitative analysis work station (Agilent technologies). AEA and 2AG was quantified by using a matrix matched internal standard calibration curve. […]

The structures appear in SMILES notation. pIC50: −log10 of the molar value. “Also recorded” adds a separate entry of the source.

Experimental findings from EP3095787A1, “[…] ACTIVE COMPOUNDS AS DAG-LIPASE INHIBITORS” (Universiteit Leiden, priority 2015, dated 2016) are described below.

The term pIC50 denotes the negative decadic logarithm of the IC50, by convention in mol/L. A higher pIC50 goes with a low IC50. With `Cc1ccc(-c2cnc3nc(C(=O)CCCCCc4ccccc4)oc3c2)cc1` [Compound 25, 1-(6-(p-Tolyl)oxazolo[4,5-b]pyridin-2-yl)-6-phenylhexan-1-one], the pIC50 on hDAGL-β was 8.10. Also, the “Native DAGL-β activity (labeling by MB064)” value on DAGL-β was “can block labeling of endogenously expressed DAGL-β; also recorded: could also be inhibited”. Moreover, in the assay on Neuro2A cells, the anandamide levels result is “constant” and the “basal 2-AG levels” value is “dose dependently decreased”.
